{
  "source": "patent US7741436B2",
  "about": "“Biologically active peptides and their use for repairing injured nerves” (priority 2001, dated 2010)",
  "type_in_all_cases": "cell-based",
  "key": {"[1]": {"tested_on": "rat cerebellar granule neurons", "assay": "Electrophysiology: voltage-clamped whole-cell patch recordings of currents induced by laminin-1-derived peptides and fusion proteins", "settings": "whole-cell patch clamp, neurons on laminin-1 substratum", "from_the_text": "Sixteen-day pregnant Sprague-Dawley female rats were obtained from Taconic Farms, and maintained at the animal facility of National Institute of Alcohol Abuse and Alcoholism (NTH), fed with NTH-31 diet, containing 20,000 IU/kg vitamin A after autoclaving. The rats were allowed to give birth, and cerebellar tissues of 3-day-old female pups were aseptically isolated as described previously (Matsuzawa et al., 1996a). A suspension of single cells was obtained by trypsinizing the cerebella as described elsewhere (Liesi and Wright, 1996), after which 10^5 cells were plated on 22 mm glass coverslip pre-coated with laminin-1. The cells were incubated in an atmosphere of 95% air/5% CO2 at +37° C. in RPMI 1640 culture medium supplemented with penicillin and streptomycin and 200 μM L-glutamine. After 24 hrs, the cells were used for electrophysiology.\nRecordings were done at room temperature using a List EPC-7 patch-clamp amplifier in voltage-clamped whole-cell patch configuration as described previously (Liesi and Wright, 1996). Pipettes were pulled from borosilicate glass and lightly fire polished. Experiments were performed at room temperature. Whole-cell currents were recorded on a Gould 2400S strip chart recorder. Cell membrane potential was clamped at −40 mV unless otherwise noted. All bath solutions were applied through pinch-valves that controlled the flow from multiple reservoirs to a single 200 μm ID barrel of fused silica. Standard bath solution was RPMI 1640, buffered with 10 mM HEPES (pH 7.4). The standard pipette solution contained (in mM): CsMeSO4 100, CsCl 15, BAPTA 5, HEPES 10 (pH KOH-adjusted to 7.2). Tests for reversal potentials were conducted in low K^+ bath solution containing (in mM): NaCl 150, KCl 5, CaCl2 1, HEPES 10 (pH adjusted to 7.2 with NaOH) and a high K^+ bath solution, containing (in mM): NaCl 115, KCl 40, CaCl2 1, HEPES 10 (pH adjusted to 7.2 with NaOH). All bath solutions contained 300 nM TTX. […] Nernst reversal potentials were calculated according to Hille (1992). […]"}, "[2]": {"tested_on": "human embryonic neocortical neurons", "assay": "Survival of human embryonic neocortical neurons on injured glial cells of the human spinal cord", "settings": "72 hrs", "from_the_text": "The CNS tissues were first placed in cold saline. The spinal cord tissues were identified under a stereomicroscope, and carefully freed of meninges. To obtain monolayer cultures of human spinal cord glial cells, the cells were dissociated by mechanical trituration using a Pasteur-pipette, and placed in Petri dishes (Corning, N.Y., USA) containing 10% fetal calf serum (Hyclone, Logan, UH) in DMEM-F12 (Gibco, U.K.) supplemented with penicillin and streptomycin as described (Liesi et al. 2001).\nHuman embryonic spinal cord glial cells were cultured till confluency in 10% fetal bovine serum as described (Liesi et al., 2001). The confluent cultures were trypsinized and cells replated at 100 000 cells/22 mm glass coverslip, and grown till confluency. The confluent cultures were changed into normal adult human serum, and injured by using a 18 G gauge sterile needle. The KDI peptide was added at 1 μg/ml (3 μM) and at 10 μg/ml (30 μM) concentration and the P1543 peptide (p20) was added at a concentration of 1 μM, and 50-100 000 freshly isolated human embryonic neocortical neurons were added on the glial cells. The control cultures had neurons added either without the peptide or the lesion. The cells were cultured for 72 hrs in 5% CO2/95% air at +37° C., and fixed for quantitation of neurons and measurement of their neuritic lengths. The neurons on glial monolayers were visualized by immunostaining using mouse monoclonal antibodies against a neuron-specific tubulin isoform (TUJ1). The results were evaluated by counting neurons in six random fields on 3 different coverslip per experiment. In this way, more than 300 neurons were counted per experiment. Statistical analysis of the results was performed using one-way analysis of Varians (ANOVA) and Student-Newman-Keuls multiple comparisons test on the Instat (v2.03) program (GraphPad, San Diego, Calif.)."}, "[3]": {"tested_on": "human CNS neurons", "assay": "Attachment and neurite outgrowth of human embryonic CNS neurons on synthetic peptides coupled to glass", "settings": "0.1-10 μg/ml, peptide covalently cross-linked to glass, 24 hrs", "protocol": "The cells were dissociated by trituration in a sterile culture medium (RPMI 1640) containing penicillin (100 U/ml), streptomycin (100 μg/ml) and 200 μM L-glutamine. The dissociated cells were plated on glass coverslips pre-coated (Liesi et al., 1989) with mouse laminin-1 (Boehringer-Mannheim, Germany) or with the peptides KDI-gc and RDIAEIIKDI-gc (SEQ ID NO: 1), as described elsewhere (Matsuzawa et al., 1996b). The peptides were from the Multiple Peptide Systems (La Jolla, Calif.). The cultures were maintained for 24 hrs, fixed in 2% paraformaldehyde, and processed for immunocytochemistry.\nImmunocytochemistry for neuron specific tubulin isoform TUJ1 was performed as described elsewhere (Liesi et al., 2001). In short, the cells were permeabilized in methanol for 5 min at −20° C., washed in PBS and incubated with monoclonal TUJ1-antibodies for 1 hr at room temperature. The antibody was of high specificity and was used at 1:500 dilution. After immunocytochemistry, the coverslips were mounted in PBS:glycerol (1:1) and viewed with Olympus Provis fluorescence microscope with appropriate filter combinations."}},
  "data": [
    {"substance": "KDI", "values": [
      {"measurement": "induction of currents in cerebellar granule neurons", "setting": "[1]", "value": "induced currents"},
      {"measurement": "attachment and neurite outgrowth of neocortical neurons on lesioned spinal cord glial cells", "setting": "[2]; 1 μg/ml soluble peptide, vs lesion control", "value": "significantly (p<0.001) improved"},
      {"measurement": "improvement of attachment and neurite outgrowth of neocortical neurons compared to that induced by p20 (1 μg/ml)", "setting": "[2]; 1 μg/ml", "value": "statistically significant"},
      {"measurement": "neuronal survival (attachment and neurite outgrowth) of neocortical neurons on lesioned spinal cord glial cells", "setting": "[2]; 10 μg/ml soluble peptide, vs unlesioned and lesioned controls", "value": "no statistical difference of neuronal survival"},
      {"measurement": "attachment and neurite outgrowth of human CNS neurons", "setting": "[3]", "value": "supported attachment and neurite outgrowth"}
    ]}
  ]
}
